{"source": "patent US20210290788A1", "about": "“RADIOIMMUNOCONJUGATES AND DNA DAMAGE AND REPAIR INHIBITOR COMBINATION THERAPY” (Fusion Pharmaceuticals Inc., priority 2018, published 2021)", "key": {"[1]": {"system": "Colo-205 (colorectal cancer) xenograft model", "experiment": "Example 3 in vivo efficacy of olaparib as single agent, Colo-205 xenograft", "experimental": "(§1) An in vivo efficacy study was conducted with olaparib alone as a single agent. Olaparib was given as a single agent at different doses in a Colo-205 (colorectal cancer) xenograft model and in an A549 (NSCLC) xenograft model. Groups of animals (n=5) were dosed with olaparib (i.p.) 5 days on, 2 days off using 10-100 mg/kg doses."}, "[2]": {"system": "A549 (NSCLC) xenograft model", "experiment": "Example 3 in vivo efficacy of olaparib as single agent, A549 xenograft", "experimental": "as §1"}, "y-H2AX foci": {"system": "y-H2AX foci", "experiment": "Example 3 immunohistochemical analysis of y-H2AX foci", "assay_type": "in vivo", "details": "after olaparib treatment; Colo-205 and A549 xenograft study", "experimental": "as §1"}, "[3]": {"system": "Colo-205 (colorectal cancer) xenograft model", "experiment": "Example 4 in vivo synergy study, olaparib dosing schedule 1, Colo-205 xenograft", "details": "[225Ac]-FPI-1434 50 nCi, olaparib 50 mg/kg i.p. 5 days on, 2 days off for 28 days, pre-dosed 3 times prior to FPI-1434, up to 28 days", "experimental": "(§2) Combination groups (n=5) were dosed with olaparib (i.p.) 5 days on, 2 days off, using a 50 mg/kg dose for 28 days. Animals were pre-dosed with olaparib 3 times prior to the [^225Ac]-FPI-1434 administration.\n(§3) Relative tumor volume was evaluated up to 28 days after administration."}, "[4]": {"system": "A549 (NSCLC) xenograft model", "experiment": "Example 4 in vivo synergy study, olaparib dosing schedule 1, A549 xenograft", "details": "[225Ac]-FPI-1434 200 nCi, olaparib 50 mg/kg i.p. 5 days on, 2 days off for 28 days, pre-dosed 3 times prior to FPI-1434, up to 28 days", "experimental": "as §2"}, "[5]": {"system": "Colo-205 (colorectal cancer) xenograft model", "experiment": "Example 5 in vivo synergy study, olaparib dosing schedule 2, Colo-205 xenograft", "details": "FPI-1434 50 nCi, olaparib 50 mg/kg i.p. 5 days on, 2 days off for 28 days, first dose 24 hours after FPI-1434, up to 28 days", "experimental": "Combination groups (n=5) were dosed with olaparib (i.p.) 5 days on, 2 days off, using a 50 mg/kg dose for 28 days. The first dose of olaparib was administered 24 hours following FPI-1434 administration.\nas §3"}, "[6]": {"system": "Colo-205 (colorectal cancer) xenograft model", "experiment": "Example 6 in vivo combination study at multiple dose levels, Colo-205 xenograft", "details": "lower effective doses: [225Ac]-FPI-1434 20 nCi, olaparib 25 mg/kg i.p. 5 days on, 2 days off from 24 hours after FPI-1434 until day 30", "experimental": "An in vivo study was conducted with [^225Ac]-FPI-1434 and olaparib in a Colo-205 (colorectal cancer) xenograft model, with [^225Ac]-FPI-1434 administered at a dose of 20 nCi, 50 nCi, or 100 nCi. In combination groups (n=5), animals were dosed with olaparib (i.p.) starting at 24 hours after [^225Ac]-FPI-1434 administration according to a 5 days on, 2 days off schedule using 25 or 50 mg/kg doses until day 30 after [^225Ac]-FPI-1434 administration (“day 0”).\nRelative tumor volume was evaluated at various time points after administration. […] FIG. 13A-13C show results using 20 nCi (FIG. 13A), 50 nCi (FIG. 13B), or 100 nCi (FIG. 13C) [^225Ac]-FPI-1434 with olaparib (25 mg/kg or 50 mg/kg)."}, "[7]": {"details": "olaparib i.p. 5 days on, 2 days off, 10-100 mg/kg"}}}
{"smiles": "O=C(c1cc(Cc2n[nH]c(=O)c3ccccc23)ccc1F)N1CCN(C(=O)C2CC2)CC1", "note": "[olaparib]", "values": [{"measurement": "Dose response of tumor volume effect", "setting": "[1]; olaparib 10-100 mg/kg doses", "value": "did not appear to be a dose response"}, {"measurement": "Relative tumor volume (efficacy as a single agent)", "setting": "[1]; [7]", "value": "modest efficacy as a single agent"}, {"measurement": "Dose response of tumor volume effect", "setting": "[2]; olaparib 10-100 mg/kg doses", "value": "did not appear to be a dose response"}, {"measurement": "Relative tumor volume (efficacy as a single agent)", "setting": "[2]; [7]", "value": "modest efficacy as a single agent"}, {"measurement": "DSB formation (y-H2AX foci, immunohistochemical analysis)", "setting": "y-H2AX foci", "value": "no increase in DSB formation"}, {"measurement": "Relative tumor volume", "setting": "[3]", "value": "some reduction in tumor volume over time"}, {"measurement": "Relative tumor volume", "setting": "[4]", "value": "no apparent difference in tumor volume over time"}, {"measurement": "Relative tumor volume", "setting": "[5]", "value": "significant reduction in tumor volume overtime"}, {"measurement": "Relative tumor volume", "setting": "[6]", "value": "no or limited therapeutic effect"}]}
